Counter-ions that a name gives are not always drawn.
Target: T1, BLM-RAD54 interaction (BLM F2 and N-RAD54 F1) (Homo sapiens, UniProt Q92698)
T1 construct: expressed in transfected cells; host or cells: HEK293T
T1 sequence (Q92698 1-212): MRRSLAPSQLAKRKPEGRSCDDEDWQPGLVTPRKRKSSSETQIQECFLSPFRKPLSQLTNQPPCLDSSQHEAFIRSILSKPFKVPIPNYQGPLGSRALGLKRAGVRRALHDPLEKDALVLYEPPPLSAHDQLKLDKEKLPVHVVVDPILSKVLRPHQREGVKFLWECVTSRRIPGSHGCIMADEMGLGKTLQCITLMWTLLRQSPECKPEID
Assay: Renilla luciferase-based protein complementation assay (PCA)
Assay type: cell-based
Conditions: disruption of BLM F2 / N-RAD54 F1 interaction, HEK293T cells, 1 nM to 100 μM; read-out: EC50
Method: Specifically, N-RAD54-F1, C-RAD54-F1, BLM-F1 and BLM-F2 were transfected in HEK293T. Forty-eight hours post-transfection, Renilla luciferase-based PCA were carried out with the indicated combination of the expressed proteins. The experiment was repeated three times. Mean±S.D.
Using the Renilla luciferase-based protein complementation assay described earlier, 1280 FDA/EMA approved small molecules present in Prestwick chemical library were screened for their ability to disrupt BLM-RAD54 interaction. Each of the small molecules was incubated with HEK293T cells expressing BLM-F2 and N-RAD54-F1. Compared to cells expressing only BLM-F2 and N-RAD54-F1, the decrease in Renilla luciferase intensity in presence of each small molecule was monitored. Percentage disruption of the interaction between BLM F2 and N-RAD54 F1 was plotted in form of heatmap. The disruption of the BLM-RAD54 interaction was determined by a decrease in the Renilla luciferase activity as compared to control untreated cells.
The percentage disruption of the interaction between BLM F2 and N-RAD54 F1 was plotted as a non-linear regression line. The data was from three independent experiments.
Renilla Luciferase (Rlu) based Protein complementation assay was carried out as described in (Stefan et al., 2007). For preliminary screening of the Prestwick Chemical Library (containing 1280 FDA/EMA approved small molecules), HEK293T cells were seeded in the 6-well plates a day prior to the transfection. Next day the cells were transfected by 2 μg each of pcDNA3.1 N-RAD54 F1, pcDNA3.1 C-RAD54 F1, pcDNA3.1 BLM F1, pcDNA3.1 BLM F2 plasmids (alone or in different combinations) using Lipofectamine 2000 (according to the manufacturer's protocol). 36 hours post-transfection, approximately […] cells were seeded in a 96-well plate and incubated at 37° C. for 2 hour with or without 10 μM of the 1280 small molecules present in the library. 10 μM of Coenleterazine h was added into each well and Rluc activity was monitored for the first 10 seconds in Varioskan Microplate Reader (Thermo Fisher Scientific). The validation screen was performed with 17 small molecules at 100 μM, 10 μM, 1 μM, 100 nM, 10 nM and 1 nM concentrations. The percentage reduction in the protein-protein interaction was then calculated as compared to the control wells (without any small molecule).

Compound | EC50 [nM]
Nc1nc2nn[nH]c2c(=O)[nH]1 [C1, Azaguanine-8] | 22.3 ± 1.98
NC(=O)NC1NC(=O)NC1=O (stereo not drawn) [C2, Allantoin] | 17.9 ± 1.82
C[C@]12C=CC(=O)C=C1CC[C@@H]1[C@@H]2C(=O)C[C@@]2(C)[C@H]1CC[C@]2(O)C(=O)CO [C6, Prednisone] | 6.26 ± 2
Cc1ncc([N+](=O)[O-])n1CCO [C8, Metronidazole] | 20.5 ± 2.61

Molecules with a lower EC50, results first:

EC50 [nM] | Compound
5.38 ± 2.17 | COc1ccc(CC2c3cc(OC)c(OC)cc3CC[N+]2(C)CCC(=O)OCCCCCOC(=O)CC[N+]2(C)CCc3cc(OC)c(OC)cc3C2Cc2ccc(OC)c(OC)c2)cc1OC (stereo not drawn) [C5, Atracurum besylate]
3.01 ± 0.812 | CN(C)C(=N)N=C(N)N [C4, Metformin hydrochloride]

Reference: patent publication US20240180881A1, “METHODS FOR DECREASING RESISTANCE TO CHEMOTHERAPY” (National Institute of Immunology, priority 2022, published 2024)
